According to PubChem BioAssay (NCI):
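Cultured in 96-well plates, cells were exposed to test compound for 48 hours across five concentrations. TGI: concentration producing complete growth inhibition.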

Assays:
Assay in all cases: inhibition of tumour cell growth, NCI panel, 48 h
M14 melanoma = test system: M14 melanoma
U251 CNS = test system: U251 CNS
HL-60(TB) leukemia = test system: HL-60(TB) leukemia
DU-145 prostate = test system: DU-145 prostate
K-562 leukemia = test system: K-562 leukemia
T-47D breast = test system: T-47D breast
SNB-75 CNS = test system: SNB-75 CNS
PC-3 prostate = test system: PC-3 prostate
NCI-H522 lung = test system: NCI-H522 lung
HOP-92 NSCLC = test system: HOP-92 NSCLC
RXF 393 renal = test system: RXF 393 renal
A549 NSCLC = test system: A549 NSCLC
NCI-H460 lung = test system: NCI-H460 lung
NCI/ADR-RES ovarian = test system: NCI/ADR-RES ovarian
A498 renal = test system: A498 renal
SK-MEL-5 melanoma = test system: SK-MEL-5 melanoma
786-0 renal = test system: 786-0 renal
HCC-2998 colon = test system: HCC-2998 colon
CCRF-CEM leukemia = test system: CCRF-CEM leukemia
SF-268 CNS = test system: SF-268 CNS
HCT-116 colon = test system: HCT-116 colon
MDA-MB-231 breast = test system: MDA-MB-231 breast
OVCAR-4 ovarian = test system: OVCAR-4 ovarian
SN12C renal = test system: SN12C renal
SK-MEL-28 melanoma = test system: SK-MEL-28 melanoma
SF-295 CNS = test system: SF-295 CNS
RPMI-8226 leukemia = test system: RPMI-8226 leukemia
UO-31 renal = test system: UO-31 renal
SK-MEL-2 melanoma = test system: SK-MEL-2 melanoma
EKVX NSCLC = test system: EKVX NSCLC
KM12 colon = test system: KM12 colon
ACHN renal = test system: ACHN renal
NCI-H226 lung = test system: NCI-H226 lung
COLO 205 colon = test system: COLO 205 colon
SR leukemia = test system: SR leukemia
LOX IMVI melanoma = test system: LOX IMVI melanoma
SF-539 CNS = test system: SF-539 CNS
MOLT-4 leukemia = test system: MOLT-4 leukemia
MCF7 breast = test system: MCF7 breast
SW-620 colon = test system: SW-620 colon
MALME-3M melanoma = test system: MALME-3M melanoma
BT-549 breast = test system: BT-549 breast
UACC-62 melanoma = test system: UACC-62 melanoma
CAKI-1 renal = test system: CAKI-1 renal
MDA-MB-435 = test system: MDA-MB-435
HCT-15 colon = test system: HCT-15 colon
HS 578T breast = test system: HS 578T breast
MDA-N = test system: MDA-N
SNB-19 CNS = test system: SNB-19 CNS
OVCAR-3 ovarian = test system: OVCAR-3 ovarian
OVCAR-8 ovarian = test system: OVCAR-8 ovarian
UACC-257 melanoma = test system: UACC-257 melanoma
TK-10 renal = test system: TK-10 renal
IGROV1 ovarian = test system: IGROV1 ovarian
OVCAR-5 ovarian = test system: OVCAR-5 ovarian
HOP-62 NSCLC = test system: HOP-62 NSCLC
SK-OV-3 ovarian = test system: SK-OV-3 ovarian
NCI-H23 lung = test system: NCI-H23 lung
HT29 colon = test system: HT29 colon

Compound: COc1cc(OCc2ccc3nc(-c4ccccc4)c(N)nc3c2)cc(OC)c1OC
- TGI (M14 melanoma): 29.3 µM
- TGI (U251 CNS): > 100 µM
- TGI (HL-60(TB) leukemia): 32.4 µM
- TGI (DU-145 prostate): 77.8 µM
- TGI (K-562 leukemia): > 100 µM
- TGI (T-47D breast): 42.5 µM
- TGI (SNB-75 CNS): 59.7 µM
- TGI (PC-3 prostate): 45.4 µM
- TGI (NCI-H522 lung): 37.7 µM
- TGI (HOP-92 NSCLC): 50 µM
- TGI (RXF 393 renal): 77 µM
- TGI (A549 NSCLC): 61.2 µM
- TGI (NCI-H460 lung): 39.7 µM
- TGI (NCI/ADR-RES ovarian): 49.6 µM
- TGI (A498 renal): 73.8 µM
- TGI (SK-MEL-5 melanoma): 24 µM
- TGI (786-0 renal): 81.2 µM
- TGI (HCC-2998 colon): > 100 µM
- TGI (CCRF-CEM leukemia): 61.9 µM
- TGI (SF-268 CNS): > 100 µM
- TGI (HCT-116 colon): 21.1 µM
- TGI (MDA-MB-231 breast): 68.9 µM
- TGI (OVCAR-4 ovarian): 34.6 µM
- TGI (SN12C renal): > 100 µM
- TGI (SK-MEL-28 melanoma): 49 µM
- TGI (SF-295 CNS): 68.7 µM
- TGI (RPMI-8226 leukemia): 31.3 µM
- TGI (UO-31 renal): 34.6 µM
- TGI (SK-MEL-2 melanoma): 43.9 µM
- TGI (EKVX NSCLC): 50.2 µM
- TGI (KM12 colon): 36.7 µM
- TGI (ACHN renal): 63.8 µM
- TGI (NCI-H226 lung): 50.4 µM
- TGI (COLO 205 colon): 30.1 µM
- TGI (SR leukemia): 43.8 µM
- TGI (LOX IMVI melanoma): 29.7 µM
- TGI (SF-539 CNS): 44.2 µM
- TGI (MOLT-4 leukemia): 28.8 µM
- TGI (MCF7 breast): 56.8 µM
- TGI (SW-620 colon): > 100 µM
- TGI (MALME-3M melanoma): 32.4 µM
- TGI (BT-549 breast): 49 µM
- TGI (UACC-62 melanoma): 28.2 µM
- TGI (CAKI-1 renal): 71.4 µM
- TGI (MDA-MB-435): 51.2 µM
- TGI (HCT-15 colon): 39.7 µM
- TGI (HS 578T breast): 78.3 µM
- TGI (MDA-N): 28.8 µM
- TGI (SNB-19 CNS): > 100 µM
- TGI (OVCAR-3 ovarian): 42.1 µM
- TGI (OVCAR-8 ovarian): 72.3 µM
- TGI (UACC-257 melanoma): 49.7 µM
- TGI (TK-10 renal): 50.3 µM
- TGI (IGROV1 ovarian): 55.9 µM
- TGI (OVCAR-5 ovarian): 55.3 µM

Compound: O=C1c2cc3c(cc2CC12Cc1cc4c(cc1C2=O)CCCC4)CCCC3
- TGI (M14 melanoma): > 100 µM
- TGI (U251 CNS): > 100 µM
- TGI (HL-60(TB) leukemia): > 100 µM
- TGI (DU-145 prostate): > 100 µM
- TGI (K-562 leukemia): > 100 µM
- TGI (HOP-62 NSCLC): 57.1 µM
- TGI (T-47D breast): 89.1 µM
- TGI (SNB-75 CNS): 53.4 µM
- TGI (PC-3 prostate): > 100 µM
- TGI (NCI-H522 lung): > 100 µM
- TGI (HOP-92 NSCLC): 50.6 µM
- TGI (RXF 393 renal): 51.6 µM
- TGI (A549 NSCLC): > 100 µM
- TGI (NCI-H460 lung): > 100 µM
- TGI (NCI/ADR-RES ovarian): > 100 µM
- TGI (SK-OV-3 ovarian): > 100 µM
- TGI (A498 renal): > 100 µM
- TGI (SK-MEL-5 melanoma): > 100 µM
- TGI (786-0 renal): 52.4 µM
- TGI (HCC-2998 colon): > 100 µM
- TGI (CCRF-CEM leukemia): > 100 µM
- TGI (SF-268 CNS): > 100 µM
- TGI (HCT-116 colon): > 100 µM
- TGI (MDA-MB-231 breast): 77.1 µM
- TGI (OVCAR-4 ovarian): 46.7 µM
- TGI (SN12C renal): > 100 µM
- TGI (SK-MEL-28 melanoma): > 100 µM
- TGI (SF-295 CNS): 69 µM
- TGI (RPMI-8226 leukemia): > 100 µM
- TGI (UO-31 renal): > 100 µM
- TGI (SK-MEL-2 melanoma): > 100 µM
- TGI (EKVX NSCLC): > 100 µM
- TGI (KM12 colon): > 100 µM
- TGI (ACHN renal): > 100 µM
- TGI (NCI-H226 lung): > 100 µM
- TGI (COLO 205 colon): > 100 µM
- TGI (SR leukemia): > 100 µM
- TGI (LOX IMVI melanoma): > 100 µM
- TGI (NCI-H23 lung): > 100 µM
- TGI (SF-539 CNS): > 100 µM
- TGI (MOLT-4 leukemia): > 100 µM
- TGI (MCF7 breast): > 100 µM
- TGI (SW-620 colon): > 100 µM
- TGI (MALME-3M melanoma): > 100 µM
- TGI (BT-549 breast): > 100 µM
- TGI (UACC-62 melanoma): > 100 µM
- TGI (MDA-MB-435): > 100 µM
- TGI (HCT-15 colon): > 100 µM
- TGI (HT29 colon): > 100 µM
- TGI (HS 578T breast): 72.5 µM
- TGI (MDA-N): > 100 µM
- TGI (SNB-19 CNS): > 100 µM
- TGI (OVCAR-3 ovarian): 93.7 µM
- TGI (OVCAR-8 ovarian): > 100 µM
- TGI (UACC-257 melanoma): 82.1 µM
- TGI (TK-10 renal): 75.8 µM
- TGI (IGROV1 ovarian): > 100 µM
- TGI (OVCAR-5 ovarian): > 100 µM
